The term Ki denotes a dissociation constant, usually derived from enzyme kinetics or from competition with a known ligand.

Structures are written as SMILES. Read-outs that look alike come from different tables or passages of the source.

Our source for the Ki and GI50 values is patent US12692249B2, “WDR5 inhibitors and modulators” (Vanderbilt University, priority 2019, dated 2026).

One test has as its target WDR5 (Homo sapiens, UniProt P61964). Nature of the test: TR-FRET competition binding assay, displacement of 10mer-Thr-FAM MLL peptide probe from His-tagged WDR5. Particulars: WDR5-His tag (residues 24-334) 2 nM; 10mer-Thr-FAM 150 nM; 60 min, room temperature; read-out: Ki for Inhibition of WDR5 by TR-FRET assay. In general terms: Time-resolved FRET reads energy transfer from a long-lived donor to a nearby acceptor.

Test [1] relates to MV4:11 human cancer cell lines. Description: Cellular viability / anti-proliferative assay, CellTiter-Glo, 5 day protocol. The class given is cell-based. As to conditions: Homo sapiens, MV4-11, 120 h, read-out: GI50 on cellular proliferation of MV4:11 human cancer cell lines. The gist of the method:
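MV-4-11 cells in IMDM with 10% FBS, 200 cells/well, exposed 5 days to 22 two-fold dilutions from 30 μM, final DMSO 0.3%. Viability read by CellTiter-Glo luminescence; GI50 from sigmoidal dose-response fit, mean of at least two replicates.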
(In general: ATP-based viability assays read luminescence as a measure of living cells.)

The mark [2] stands for this setting: MV4:11 cells, 5 day incubation, CellTiter-Glo, mean of at least two replicates.

For `COc1cnc2c(c1)[C@@H](N1CCc3c(cc(Cn4ccnc4C)cc3-c3cn(C)nc3C(F)(F)F)C1=O)CCC2` [Example 68, (S)-2-(3-Methoxy-5,6,7,8-tetrahydroquinolin-5-yl)-7-((2-methyl-1H-imidazol-1-yl)methyl)-5-(1-methyl-3-(trifluoromethyl)-1H-pyrazol-4-yl)-3,4-dihydroisoquinolin-1(2H)-one], the Ki on WDR5 is less than 0.02 nM. In addition, the GI50 in test [1] (setting [2]) was less than 20 nM.
In the same order, the values of `COc1ccc2c(c1)[C@@H](N1CCc3c(cc(Cn4ccnc4C)cc3-c3cn(C)nc3C(F)(F)F)C1=O)CCO2` [Example 69, (S)-2-(6-Methoxychroman-4-yl)-7-((2-methyl-1H-imidazol-1-yl)methyl)-5-(1-methyl-3-(trifluoromethyl)-1H-pyrazol-4-yl)-3,4-dihydroisoquinolin-1(2H)-one] are less than 0.02 nM and less than 20 nM.
Consider `COc1ccc2c(c1)[C@@H](N1CCc3c(cc(Cn4ccnc4)cc3-c3cn(C)nc3C(F)(F)F)C1=O)CCO2` [Example 70, (S)-7-((1H-Imidazol-1-yl)methyl)-2-(6-methoxychroman-4-yl)-5-(1-methyl-3-(trifluoromethyl)-1H-pyrazol-4-yl)-3,4-dihydroisoquinolin-1(2H)-one], for which the Ki on WDR5 was less than 0.02 nM. Also, the GI50 in test [1] (setting [2]) was less than 20 nM.
In the same order, the values of `COc1cnc2c(c1)[C@@H](N1CCc3c(cc(Cn4ccnc4)cc3-c3cn(C)nc3C(F)(F)F)C1=O)CCC2` [Example 71, (S)-7-((1H-Imidazol-1-yl)methyl)-2-(3-methoxy-5,6,7,8-tetrahydroquinolin-5-yl)-5-(1-methyl-3-(trifluoromethyl)-1H-pyrazol-4-yl)-3,4-dihydroisoquinolin-1(2H)-one] are less than 0.02 nM and less than 20 nM.
As for `Cn1cc(-c2cc(Cn3ccnc3)cc3c2CCN([C@H]2CCOc4ncc(Cl)cc42)C3=O)c(C(F)(F)F)n1` [Example 72], the Ki on WDR5 is less than 0.02 nM. In addition, the GI50 in test [1] is less than 20 nM.
For the molecule `CN1CC[C@H](N2CCc3c(cc(Cn4ccnc4)cc3-c3cn(C)nc3C(F)(F)F)C2=O)c2cc(Cl)cnc21` [Example 73, (S)-7-((1H-Imidazol-1-yl)methyl)-2-(6-chloro-1-methyl-1,2,3,4-tetrahydro-1,8-naphthyridin-4-yl)-5-(1-methyl-3-(trifluoromethyl)-1H-pyrazol-4-yl)-3,4-dihydroisoquinolin-1(2H)-one], on WDR5, the Ki is less than 0.02 nM. Further, the GI50 in test [1] is less than 20 nM.
In the same order, the values of `CCn1cc(-c2cc(Cn3ccnc3C)cc3c2CCN([C@H]2CCOc4ccc(OC)cc42)C3=O)c(C(F)(F)F)n1` [Example 74, (S)-5-(1-Ethyl-3-(trifluoromethyl)-1H-pyrazol-4-yl)-2-(6-methoxychroman-4-yl)-7-((2-methyl-1H-imidazol-1-yl)methyl)-3,4-dihydroisoquinolin-1(2H)-one] are less than 0.02 nM and 20 nM.
As for `CCn1cc(-c2cc(Cn3ccnc3)cc3c2CCN([C@H]2CCOc4ccc(OC)cc42)C3=O)c(C(F)(F)F)n1` [Example 75, (S)-7-((1H-Imidazol-1-yl)methyl)-5-(1-ethyl-3-(trifluoromethyl)-1H-pyrazol-4-yl)-2-(6-methoxychroman-4-yl)-3,4-dihydroisoquinolin-1(2H)-one], on WDR5, the Ki is less than 0.02 nM. The GI50 in test [1] (setting [2]) worked out at 23 nM.
In the case of `Cc1nccn1Cc1cc2c(c(-c3cn(C)nc3C(F)(F)F)c1)CCN([C@H]1CCc3ccccc31)C2=O` [Example 76, (S)-2-(2,3-Dihydro-1H-inden-1-yl)-7-((2-methyl-1H-imidazol-1-yl)methyl)-5-(1-methyl-3-(trifluoromethyl)-1H-pyrazol-4-yl)-3,4-dihydroisoquinolin-1(2H)-one], the Ki on WDR5 is less than 0.02 nM. The GI50 in test [1] (setting [2]) worked out at 613 nM.
In the same order, the values of `Cc1nccn1Cc1cc2c(c(-c3cn(C)nc3C(F)(F)F)c1)CCN(C1COc3ccccc31)C2=O` (stereo not drawn) [Example 77, 2-(2,3-Dihydrobenzofuran-3-yl)-7-((2-methyl-1H-imidazol-1-yl)methyl)-5-(1-methyl-3-(trifluoromethyl)-1H-pyrazol-4-yl)-3,4-dihydroisoquinolin-1(2H)-one] are less than 0.02 nM and 583 nM.
In the same order, the values of `COc1ccc2c(c1)c(N1CCc3c(cc(Cn4ccnc4C)cc3-c3cn(C)nc3C(F)(F)F)C1=O)cn2C` [Example 78, 2-(5-Methoxy-1-methyl-1H-indol-3-yl)-7-((2-methyl-1H-imidazol-1-yl)methyl)-5-(1-methyl-3-(trifluoromethyl)-1H-pyrazol-4-yl)-3,4-dihydroisoquinolin-1(2H)-one] are 0.029 nM and 48 nM.
In the same order, the values of `COc1cnc2c(c1)c(N1CCc3c(cc(Cn4ccnc4C)cc3-c3cn(C)nc3C(F)(F)F)C1=O)cn2C` [Example 79, 2-(5-Methoxy-1-methyl-1H-pyrrolo[2,3-b]pyridin-3-yl)-7-((2-methyl-1H-imidazol-1-yl)methyl)-5-(1-methyl-3-(trifluoromethyl)-1H-pyrazol-4-yl)-3,4-dihydroisoquinolin-1(2H)-one] are less than 0.02 nM and less than 20 nM.
On to `COc1ccc2c(c1)c(N1CCc3c(cc(Cn4ccnc4C)cc3-c3cn(C)nc3C(F)(F)F)C1=O)c(C)n2C` [Example 80, 2-(5-Methoxy-1,2-dimethyl-1H-indol-3-yl)-7-((2-methyl-1H-imidazol-1-yl)methyl)-5-(1-methyl-3-(trifluoromethyl)-1H-pyrazol-4-yl)-3,4-dihydroisoquinolin-1(2H)-one], for which the inhibition constant Ki at WDR5 is 0.029 nM. Besides, the GI50 in test [1] (setting [2]) is 61 nM.
In the same order, the values of `COc1ccc2c(c1)c(N1CCc3c(cc(Cn4ccnc4C)cc3-c3cn(C)nc3C(F)(F)F)C1=O)nn2C` [Example 81, 2-(5-Methoxy-1-methyl-1H-indazol-3-yl)-7-((2-methyl-1H-imidazol-1-yl)methyl)-5-(1-methyl-3-(trifluoromethyl)-1H-pyrazol-4-yl)-3,4-dihydroisoquinolin-1(2H)-one] are less than 0.02 nM and 38 nM.
In the same order, the values of `Cc1nccn1Cc1cc2c(c(-c3cn(C)nc3C(F)(F)F)c1)CCN(c1cn(C)c3ncc(F)cc13)C2=O` [Example 82, 2-(5-Fluoro-1-methyl-1H-pyrrolo[2,3-b]pyridin-3-yl)-7-((2-methyl-1H-imidazol-1-yl)methyl)-5-(1-methyl-3-(trifluoromethyl)-1H-pyrazol-4-yl)-3,4-dihydroisoquinolin-1(2H)-one] are 0.061 nM and 384 nM.
In the case of `COc1cnc2c(c1)c(N1CCc3c(cc(Cn4ccnc4)cc3-c3cn(C)nc3C(F)(F)F)C1=O)cn2C` [Example 83], the Ki on WDR5 is less than 0.02 nM. Also, in test [1] (setting [2]), the GI50 amounted to 45 nM.
With `CCn1cc(N2CCc3c(cc(Cn4ccnc4)cc3-c3cn(C)nc3C(F)(F)F)C2=O)c2cc(OC)cnc21` [Example 84, 7-((1H-Imidazol-1-yl)methyl)-2-(1-ethyl-5-methoxy-1H-pyrrolo[2,3-b]pyridin-3-yl)-5-(1-methyl-3-(trifluoromethyl)-1H-pyrazol-4-yl)-3,4-dihydroisoquinolin-1(2H)-one], at WDR5, the Ki is less than 0.02 nM. Also, in test [1] (setting [2]), the GI50 stood at 39 nM.
In the same order, the values of `COc1cc(OC)c2c(c1)c(N1CCc3c(cc(Cn4ccnc4)cc3-c3cn(C)nc3C(F)(F)F)C1=O)cn2C` [Example 85, 7-((1H-Imidazol-1-yl)methyl)-2-(5,7-dimethoxy-1-methyl-1H-indol-3-yl)-5-(1-methyl-3-(trifluoromethyl)-1H-pyrazol-4-yl)-3,4-dihydroisoquinolin-1(2H)-one] are less than 0.02 nM and 92 nM.
